According to patent US20100093794A1, “Use of a Compound in Obtaining Cytoskeleton Blockage and Cell Elongation” (priority 2006, published 2010):
Starred links: 1 amine or outer side, 2 acyl side, 3 side chain; linkers in the order of their positions; H or OH if unused. Positions of bridges follow the written chain, without caps; N, C: chain ends. Non-standard residues stand in square brackets, D forms with d. Residues, ends and D or L forms follow the SMILES beside them. Trp(2-yl) = O=C([C@H](Cc1c([*:3])[nH]c2ccccc12)N[*:1])[*:2]; Leu(4R-OH,5-OH) = C[C@](O)(CO)C[C@H](N)C(=O)O; cisHyp = O=C(O)[C@@H]1C[C@H](O)CN1

Legend:
[1] = test system: A549 lung carcinoma cells; experiment: Cytoskeleton staining and confocal microscope: cell elongation; assay type: cell-based, human
Method: (§1) The cells were cultured on coverslips kept in a p60 Petri dish, and the coverslips were kept in a CO2 incubator for 16-20 hours. After being treated with or without PT-262, the cells were fixed in 4% parafomaldehyde solution for 60 minutes at 37° C. Then the coverslips were washed three times with PBS. The F-actin and β-tubulin were stained with 20 U/ml BODIPY FL phallacidin and anti-β-tubulin Cy3 for 30 minutes at 37° C., respectively. Finally, the nuclei were stained with 2.5 ug/ml Hoechst 33258 for 30 minutes. And the cells were added with 80% Glycerin and sealed with nail varnish. The samples were examined under a Leica confocal laser scanning microscope.

[2] = test system: A549 lung carcinoma cells; experiment: Cell cycle analysis (flow cytometer); assay type: cell-based, human; details: 24 hours
Method: (§2) The A549 cell line was derived from lung carcinoma of a person. The H1299 cell line has a homozygous deletion of the P53 gene that was derived from a non-small cell lung adenocarcinoma tumor. MCF-7 cell line was derived from breast adenocarcinoma of a person. Hela cell line was derived from cervical carcinoma of a person. These cell lines are cultured in RPMI-1640 medium supplemented with 10% fetal bovine serum, 100 units/ml penicillin, 100 ug/ml streptomycin, and L-glutamine (0.03%, w/v), and cells were incubated at 37° C. and 5% CO2.
(§3) The cells were plated at a density of 1×10^6 cells per p60 dish for 16-20 hours. Then the cells were treated with PT-262 for 24 hours. After drug treatment, the cells were washed with PBS and re-treated with trypsin, the cells were suspended and collected in a 15 ml centrifuge tube. After centrifugation at 1500 rpm for 5 minutes, the cells were fixed with 70% ethanol and stored at −20° C. for at least 2 hours. After being re-centrifuged at 1500 rpm for 5 minutes, the cell pellets were incubated with 4 ug/ml propidium iodine solution containing 1% Triton X-100 and 100 ug/ml RNase A for 30 minutes. The cell cycle was then analyzed by flow cytometer, and the percentage of cell cycle was quantified by ModFit Lt software (Ver. 2.0).

[3] = test system: A549 lung carcinoma cells; experiment: Cell growth assay; assay type: cell-based, human; details: 24 hours
Method: as §2
The cells were plated at a density of 5×10^5 cells per p100 Petri dish for 16-20 hours. Then the cells were treated with PT-262 of different concentrations for 24 hours. After drug treatment, the cells were washed with PBS and re-treated with trypsin, the cells were suspended and were counted by a hemocytometer.

[4] = test system: human A549 lung carcinoma cells; experiment: MTT assay (cytotoxicity); assay type: cell-based
Method: as §2
(§4) Briefly, the cells were plated in 96-well plates at a density of 1×10^4 cells/well for 16-20 hours. Then the cells were treated with pt-262 for 24 hours in serum-free RPMI-1640 medium. After drug treatment, the cells were washed with phosphate-buffered saline (PBS), and were re-cultured in complete RPMI-1640 medium for 48 hours. Subsequently, the medium was replaced and the cells were incubated with 500 ug/ml MTT in complete RPMI-1640 medium for 4 hours. The surviving cells were dissolved in DMSO after removing the MTT medium, and was measured at 565 nm using a ELISA reader.

[5] = test system: caspase-3; experiment: Western blot; assay type: cell-based; details: cancer cells
Method: (§5) At the end of treatment, the cells were lysed in the cell extract buffer containing the protease inhibitors. Amounts of proteins in samples were subjected to electrophoresis using 10-12 sodium dodecyl sulfate-polyacrylamide gels. After electrophoretic transfer of proteins onto polyvinylidene difluoride (PVDF) membranes, the membranes were dipped in 5% degreased milk containing first antibody for 24 hours at 4° C. After being washed three times with TTBS buffer solution for 5-15 minutes at room temperature, the PVDF membranes are dipped in 5% degreased milk containing second antibody for 1-2 hours at room temperature. And then the membranes were re-washed three times with TTBS buffer solution for 5-15 minutes at room temperature. Finally, the protein bands were visualized using the enhanced chemiluminescence detection system.

[6] = test system: phospho-cdc2; experiment: Western blot; assay type: cell-based; details: cancer cells; 5-20 uM, 24 hours
Method: as §5

[7] = test system: cyclin B1; experiment: Western blot; assay type: cell-based; details: cancer cells; 5-20 uM, 24 hours
Method: as §5

[8] = test system: Ras; experiment: Western blot; assay type: cell-based; details: cancer cells; after treatment with PT-262
Method: as §5

[9] = test system: phospho-ERK; experiment: Western blot; assay type: cell-based; details: cancer cells; after treatment with PT-262
Method: as §5

[10] = test system: A549 lung carcinoma cells; experiment: Mitochondrial membrane potential (DiOC6, flow cytometer); assay type: cell-based, human; details: as the drug concentration increased, 24 hours
Method: The cells were cultured in 60-mm Petri dish at a density of 5×10^5 cells. Then the cells were treated with PT-262 of different concentrations for 24 hours. After drug treatment, the cells were washed with PBS and were trypsinized, the cells were suspended and were counted by a hemocytometer. The cells were collected by centrifugation, and the pellets were resuspended in 70% ethanol and stored at […]20° C. for at least 2 hours. After centrifugation, the pelts were incubated with 0.5 uM DiOC6 for 30 minutes. Then cell pellets were collected by centrifugation and resuspended in 0.5 ml ice-cold PBS. Finally, fluorescence intensities of DiOC6 were analyzed on a flow cytometer.

[11] = test system: H1299 cells; experiment: Cell cycle analysis (flow cytometer); assay type: cell-based; details: 24 hours
Method: as §2, §3

[12] = test system: MCF-7 breast carcinoma cells; experiment: MTT assay (cytotoxicity); assay type: cell-based, human
Method: as §2, §4

[13] = test system: Hela cervical carcinoma cells; experiment: MTT assay (cytotoxicity); assay type: cell-based, human
Method: as §2, §4

[14] = test system: F-actin; experiment: Cytoskeleton staining and confocal microscope: actin filament (F-actin); assay type: cell-based, human
Method: as §1

[15] = test system: Microtubule; experiment: Cytoskeleton staining and confocal microscope: microtubule (β-tubulin); assay type: cell-based, human; details: for red fluorescence intensity of β-tubulin: A549, 50 nM, 24 hours; for microtubule polymerization: comparison of cytoskeleton inhibitors
Method: as §1

[16] = test system: terminal cancer patients; details: cited from earlier work
[17] = lung carcinoma cells, comparison of cytoskeleton inhibitors
[18] = Homo sapiens, treatment for 24 hours, at cell viability of 50%
[19] = comparison of cytoskeleton inhibitors

**Q.** With O=C1C(N2CCCCC2)=C(Cl)C(=O)c2ncccc21 [PT-262, 7-chloro-6-piperidin-1-yl-quinoline-5,8-dione] as the compound, how does the cell elongation ([1]; A549, 2 uM) read?
**A.** induced

**Q.** What about the “cell length of some cells” value ([1]; A549, Leica confocal software) of the same compound?
**A.** 160 um

**Q.** And the average cell length ([1]; A549, untreated 39.2 um, Leica confocal software)?
**A.** 65.3 um

**Q.** And the cell elongation [1, 17]?
**A.** increased

**Q.** And the G0/G1 fractions [2]?
**A.** decreased

**Q.** What about the G2/M fractions [2] of the same compound?
**A.** increased

**Q.** And the growth arrest ([3]; 10 uM)?
**A.** almost completely induced

**Q.** What about the cell growth ([3]; 5-10 uM) of the same compound?
**A.** concentration-dependently inhibited

**Q.** What about the cell survival ratio ([4]; 1-10 uM, 24 hours) of the same compound?
**A.** decreased as the concentration increased

**Q.** And the IC50 [4, 18]?
**A.** 2 to 4 µM

**Q.** What about the caspase-3 activation [5] of the same compound?
**A.** noticeably induced

**Q.** And the “levels of phospho-cdc2 protein” value [6]?
**A.** noticeably decreased

**Q.** What about the “levels of cyclin B1 protein” value [7] of the same compound?
**A.** noticeably decreased

**Q.** And the “expression level of Ras” value [8]?
**A.** decreased

**Q.** What about the “expression level of phospho-ERK” value [9] of the same compound?
**A.** decreased

**Q.** What about the Mitochondrial membrane potential [10] of the same compound?
**A.** noticeably inhibited

**Q.** And the G0/G1 fractions [11]?
**A.** decreased

**Q.** And the G2/M fractions [11]?
**A.** increased

**Q.** And the cell survival ratio ([12]; 1-10 uM, 24 hours)?
**A.** decreased as the concentration increased

**Q.** And the IC50 ([12]; Homo sapiens, MCF7, treatment for 24 hours, at cell viability of 50%)?
**A.** 2 to 4 µM

**Q.** What about the cell survival ratio ([13]; 1-10 uM, 24 hours) of the same compound?
**A.** decreased as the concentration increased

**Q.** What about the IC50 [13, 18] of the same compound?
**A.** 2 to 4 µM

**Q.** And the F-actin polymerization ([14]; A549, 2 uM)?
**A.** induced

**Q.** And the actin polymerization [14, 19]?
**A.** induction

**Q.** For COc1cc2c(c(OC)c1OC)-c1ccc(OC)c(=O)cc1[C@@H](NC(C)=O)CC2 [colchichine], which cell elongation [1, 17] is on record?
**A.** didn't induce

**Q.** What about the “red fluorescence intensity of β-tubulin” value [15] of the same compound?
**A.** reduced

**Q.** And the microtubule polymerization [15]?
**A.** inhibiting

**Q.** Which results are given for C=C1[C@@H](C)[C@H]2[C@H](Cc3ccccc3)NC(=O)[C@]23OC(=O)/C=C/[C@H](O)CCC[C@@H](C)C/C=C/[C@H]3[C@@H]1O [cytochalasin B, reference compound]?
**A.** cell elongation [1, 17]: didn't induce; actin polymerization [14, 19]: prevented

**Q.** Which results are given for CC(=O)O[C@H]1C(=O)[C@@]2(C)[C@H]([C@H](OC(=O)c3ccccc3)[C@]3(O)C[C@H](OC(=O)[C@H](O)[C@@H](NC(=O)c4ccccc4)c4ccccc4)C(C)=C1C3(C)C)[C@]1(OC(C)=O)CO[C@@H]1C[C@@H]2O [paclitaxel]?
**A.** cell elongation [1, 17]: didn't induce; red fluorescence intensity of β-tubulin [15]: increased; microtubule polymerization [15]: induced; suppression rate ([16]; 40 terminal cancer patients): 30%; patients reduced in tumor size by over 50% ([16]; of 40 terminal cancer patients): 12

**Q.** Which results are given for C[C@@H]1NC(=O)[C@H](C[C@@](C)(O)CO)NC(=O)[C@@H]2Cc3c([nH]c4ccccc34)SC[C@H](NC(=O)[C@@H]([C@H](C)O)NC1=O)C(=O)N1C[C@@H](O)C[C@H]1C(=O)N[C@@H](C)C(=O)N2 [phalloidin] (cyclo(A[dT]C[cisHyp]A[Trp(2-yl)][Leu(4R-OH,5-OH)]); thioether 3-6)?
**A.** cell elongation ([1]; A549, 24 hours): caused the cell elongation; green fluorescence intensity of F-actin ([14]; A549, 24 hours): increased; actin depolymerization [14, 19]: inhibit
